# According to patent US6211439A, “Herbicide resistance in plants” (MGI Pharma, Inc, priority 1995, dated 2001):
# How the values were obtained:
# [1] = system: XA17 seedlings homozygous for the herbicide resistance trait; experiment: Seedling assay, XA17 seedlings homozygous for the resistance trait; assay type: in vivo, maize
# Description: (§1) Twenty control seeds and ten XA17 seeds were surface sterilized with 2.6% sodium hypochlorite for twenty minutes and then washed with sterile distilled water. The seed was imbibed overnight in sterile water containing a small quantity of the fungicide, captan (N-trichloromethylthio-4-cyclohexene-1,2-dicarboximide). The mature embryos were then excised from the seed and plated scutellum side down on solid MS media without 2,4-D. Ten control seeds were plated on media containing no 214 and ten were plated in the presence of 6×10^-8M 214 which had been incorporated into the medium after autoclaving but before gelling. All ten XA17 seeds were plated in the presence of 6×10^-8 M 214. Seedlings were evaluated seven days after plating.
# XA17 seeds homozygous for the resistance trait were obtained as described in Section 6.4.6. […] Assays were conducted as described in Section 6.4.5.
# XA17 seedlings = experiment: Seedling assay, progeny of XA17 regenerated plant x B73 (heterozygous); assay type: in vivo, maize
# Description: An XA17 regenerated plant with a normal ear was pollinated with pollen obtained from a herbicide sensitive inbred B73 plant grown from seed. Seeds were obtained and harvested approximately forty days post pollination.
# as §1
# [2] = system: AHAS activity from line QJ22; experiment: AHAS activity assay, line QJ22; assay type: biochemical, maize; conditions: 3×10^-6 to 3×10^-4 M 997
# Description: Assays were conducted as a modification of the procedure of Smith et al. (1979, Molec. Gen. Genet. 169: 299-314). Plant cell culture material was ground with sand in a cold mortar and pestle in an equal quantity (w/v) of cell disruption media containing 0.05 M potassium phosphate (pH 7.0), 0.1 mM MgSO4, and 0.5 mM dithiothreitol. The preparation was centrifuged at 11,000×g for 20 minutes and the supernatant assayed for AHAS activity. Assays were conducted in 1 ml volumes containing 0.05 M potassium phosphate (pH 8.0), 40 mM pyruvate, 5 mM MgCl2, 0.1 mM thiamine pyrophosphate, 0.2 ml cell extract, and various concentrations of the herbicide of interest. The reaction mixtures were incubated at 30° C. for 75 minutes and the reaction terminated with the addition of 0.1 ml of 50% (v/v) H2 SO4. Following further incubation at 40° C. for 20 minutes, the acetoin formed from acetolactate by acidification was quantitated using the method of Westerfield (1945, J. Biol. Chem. 161: 495). To 0.2 ml of reaction mixture, 0.8 ml of water, 0.5 ml of 0.5% (w/v) creatine, and 0.5 ml of 5% (w/v) naphthol in 10% (w/v) NaOH was added. After mixing, solutions were incubated at room temperature for one hour. The development of pink color was quantitated by measuring light absorbance at 530 nm. […]
# [3] = 6×10^-8 M 214, seven days after plating
SMILES,"shoot growth inhibition at the highest concentration tested ([1]; 3×10^-6 M, seedlings homozygous for the resistance trait)",resistance of XA17 homozygous seedlings ([1]; vs control seedlings),root length of resistant seedlings (XA17 seedlings; [3]),root length of sensitive seedlings (XA17 seedlings; [3]),level of tolerance on an herbicide concentration basis (XA17 seedlings; seedlings heterozygous for the tolerance trait),tolerance of AHAS activity vs AHAS from control cultures [2]
"CC(C)C1(C)NC(c2nc3ccccc3cc2C(=O)O)=NC1=O (stereo not drawn) [compound 214, 2-(5-isopropyl-5-methyl-4-oxo-2-imidazolin-2-yl)3-quinolinecarboxylic acid]",no inhibition,at least 100 fold,6-7 cm,0-1 cm,at least 5 fold,–
"CC(C)C1(C)NC(c2ncccc2C(=O)O)=NC1=O (stereo not drawn) [compound 997, 2-(5-isopropyl-5-methyl-4-oxo-2-imidazolin-2-yl)nicotinic acid]",–,–,–,–,–,more tolerant
